Laboratory results as given in patent US10287252B2, “Inhibitors of tryptophan-2,3-dioxygenase or indoleamine-2,3-dioxygenase” (IOmet Pharma Ltd., priority 2014, dated 2019).

What was measured:
TDO [1] = target: T1, TDO (Homo sapiens, UniProt P48775); test: A172 Kynurenine cell based assay; design: This assay utilised cancer cells which expressed either TDO or IDO; endogenous in cells; host or cells: A172 (human glioblastoma); details: A172 (human glioblastoma) cells, 500 μM L-tryptophan, 48 hours, kynurenine by Erhlich's reagent
Description: (§1) Exemplary compounds of the invention were prepared, and tested to determine their effect as TDO and/or IDO inhibitors. Two different assays were employed: 1. a cell-based assay for detecting the effect of test compounds on kynurenine production in two different cancer cell types. This assay utilised cancer cells which expressed either TDO or IDO and as such was used as a means of testing compound activity at these two enzymes in a cell-based context. 2. a TDO and IDO biochemical coupled assay which utilised recombinantly produced and purified TDO and IDO enzymes in combination with the enzyme formamidase. This coupled enzyme system allowed conversion of N-formylkynurenine produced by TDO or IDO activity to kynurenine which was then quantified by fluorescence following addition of Erhlich's Reagent The protocols for these are set out below.
(§2) Cell Based Assay for Detection of Kynurenine Produced by TDO and/or IDO
(§3) A172 (human glioblastoma) and SKOV3 (human ovarian adenocarcinoma) cells were seeded in a 96 well plate at 30,000 or 40,000 cells per well respectively in phenol red-free RPMI supplemented with 10% FCS, 2 mM L-glutamine and 500 μM L-tryptophan. IDO expression was induced in the SKOV3 cells by the addition of 500 ng/ml IFN-γ. Cells were incubated at 37° C. with or without the addition of test compound. After 48 hours, the cells were removed by centrifugation and Erhlich's reagent was added to the supernatant. The Erhlich's reagent was incubated for 5 minutes before the absorbance was read at 490 nm.

IDO [2] = target: T2, IDO (Homo sapiens, UniProt P14902); test: SKOV3 Kynurenine cell based assay; design: IDO expression was induced in the SKOV3 cells by the addition of 500 ng/ml IFN-γ; endogenous in cells; host or cells: SKOV3 (human ovarian adenocarcinoma), induced with IFN-γ; details: SKOV3 (human ovarian adenocarcinoma) cells, IDO induced by 500 ng/ml IFN-γ, 500 μM L-tryptophan, 48 hours
Description: as §1, §2, §3

IDO [3] = target: T2, IDO; test: hIDO biochemical coupled assay; details: 45 μM L-tryptophan, coupled with kynurenine formamidase
Description: as §1
(§4) TDO and IDO Biochemical Coupled Assay
(§5) Recombinant human IDO or TDO was incubated in 50 mM KPO4 (pH 7.0), 0.5 mM EGTA, 0.5 mM EDTA, 0.05% Triton™ X100, 20 mM ascorbate, 10 μM methylene blue, 500 U/ml catalase, 50 μg/ml KynB (kynurenine formamidase). TDO assays were carried out in the presence of 330 μM L-tryptophan, while IDO assays had the addition of 45 μM L-tryptophan. After incubation for 17 minutes at room temperature the reactions were stopped by the addition of Erhlich's reagent and incubated at room temperature for 5 minutes before the fluorescence was read (Ex475, Em530).

TDO [4] = target: T1, TDO; test: hTDO biochemical coupled assay; details: 330 μM L-tryptophan, coupled with kynurenine formamidase
Description: as §1, §4, §5

T1 sequence (P48775 whole entry): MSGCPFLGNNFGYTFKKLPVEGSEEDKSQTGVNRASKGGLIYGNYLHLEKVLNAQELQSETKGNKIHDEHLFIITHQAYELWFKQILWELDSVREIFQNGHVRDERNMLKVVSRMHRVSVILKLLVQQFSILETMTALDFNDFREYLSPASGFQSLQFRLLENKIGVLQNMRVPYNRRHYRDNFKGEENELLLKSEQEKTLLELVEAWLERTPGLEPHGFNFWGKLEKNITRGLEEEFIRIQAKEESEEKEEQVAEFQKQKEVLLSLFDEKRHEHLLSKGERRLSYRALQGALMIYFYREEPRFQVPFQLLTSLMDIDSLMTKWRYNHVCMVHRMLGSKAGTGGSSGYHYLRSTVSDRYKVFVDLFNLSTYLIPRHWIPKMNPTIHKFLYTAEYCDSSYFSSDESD
T2 sequence (P14902 whole entry): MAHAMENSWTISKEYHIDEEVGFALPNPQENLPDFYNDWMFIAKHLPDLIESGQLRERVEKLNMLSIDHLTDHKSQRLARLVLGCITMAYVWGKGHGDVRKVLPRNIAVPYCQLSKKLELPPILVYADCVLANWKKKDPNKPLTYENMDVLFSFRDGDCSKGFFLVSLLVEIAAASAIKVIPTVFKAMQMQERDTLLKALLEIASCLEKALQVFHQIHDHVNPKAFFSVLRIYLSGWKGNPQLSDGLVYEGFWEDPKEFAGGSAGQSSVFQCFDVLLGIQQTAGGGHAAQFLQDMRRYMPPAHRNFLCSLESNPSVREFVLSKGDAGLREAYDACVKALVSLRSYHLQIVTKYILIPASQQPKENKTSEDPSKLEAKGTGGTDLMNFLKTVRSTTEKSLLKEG

Compound | A172 Kynurenine cell based assay pIC50 (TDO [1]) | SKOV3 Kynurenine cell based assay pIC50 (IDO [2]) | hIDO biochemical assay pIC50 (IDO [3]) | hTDO biochemical assay pIC50 (TDO [4])
Cc1cc2c(NS(=O)(=O)c3ccccc3)cccc2nn1 [Compound 1] | + (+ = pIC50 4.00-4.49) | + (+ = pIC50 4.00-4.49) | ++ (++ = pIC50 4.50-5.49) | ++ (++ = pIC50 4.50-5.49)
Cc1cc2c(NC(=O)c3ccc4ncccc4c3)cccc2nn1 [Compound 2] | + (+ = pIC50 4.00-4.49) | + (+ = pIC50 4.00-4.49) | +/− (+/− = pIC50 <4.00) | ++ (++ = pIC50 4.50-5.49)
Cc1cc2c(NC(=O)c3ccc4ccccc4n3)cccc2nn1 [Compound 3] | + (+ = pIC50 4.00-4.49) | +/− (+/− = pIC50 <4.00) | +/− (+/− = pIC50 <4.00) | + (+ = pIC50 4.00-4.49)
CC(C)CS(=O)(=O)Nc1cccc2cnccc12 [Compound 4] | + (+ = pIC50 4.00-4.49) | +/− (+/− = pIC50 <4.00) | ++ (++ = pIC50 4.50-5.49) | +++ (+++ = pIC50 ≥5.50)
O=C(Nc1cccc2cnccc12)C1COc2ccccc2C1 (centres unmarked) [Compound 6] | + (+ = pIC50 4.00-4.49) | ++ (++ = pIC50 4.50-5.49) | +++ (+++ = pIC50 ≥5.50) | +++ (+++ = pIC50 ≥5.50)
O=S(=O)(Nc1cccc2cnccc12)c1cccc2ccccc12 [Compound 16] | ++ (++ = pIC50 4.50-5.49) | ++ (++ = pIC50 4.50-5.49) | ++ (++ = pIC50 4.50-5.49) | + (+ = pIC50 4.00-4.49)
O=S(=O)(Nc1cccc2ccncc12)c1ccc(-c2ccccc2)cc1 [Compound 54] | + (+ = pIC50 4.00-4.49) | + (+ = pIC50 4.00-4.49) |  | 

Further lines, results first:

A172 Kynurenine cell based assay pIC50 (TDO [1]) | SKOV3 Kynurenine cell based assay pIC50 (IDO [2]) | hIDO biochemical assay pIC50 (IDO [3]) | hTDO biochemical assay pIC50 (TDO [4]) | Compound
+++ (+++ = pIC50 ≥5.50) | ++ (++ = pIC50 4.50-5.49) | ++ (++ = pIC50 4.50-5.49) | ++ (++ = pIC50 4.50-5.49) | O=S(=O)(Nc1cccc2cnccc12)c1ccccc1 [Compound 9]
+++ (+++ = pIC50 ≥5.50) | ++ (++ = pIC50 4.50-5.49) | ++ (++ = pIC50 4.50-5.49) |  | COc1cccc(S(=O)(=O)Nc2cccc3cnccc23)c1 [Compound 14]
+ (+ = pIC50 4.00-4.49) | ++ (++ = pIC50 4.50-5.49) |  |  | O=S(=O)(Nc1cccc2ccncc12)c1ccc(Cl)cc1 [Compound 55]
+/− (+/− = pIC50 <4.00) | + (+ = pIC50 4.00-4.49) | + (+ = pIC50 4.00-4.49) | +/− (+/− = pIC50 <4.00) | O=S(=O)(Nc1cccc2ccncc12)c1ccccc1 [Compound 56]
+/− (+/− = pIC50 <4.00) | ++ (++ = pIC50 4.50-5.49) | + (+ = pIC50 4.00-4.49) | +/− (+/− = pIC50 <4.00) | O=S(=O)(Nc1cc(Cl)cc2cnccc12)c1ccc(Cl)cc1 [Compound 57]
+/− (+/− = pIC50 <4.00) | ++ (++ = pIC50 4.50-5.49) | + (+ = pIC50 4.00-4.49) | +/− (+/− = pIC50 <4.00) | CC(C)Oc1ccc(S(=O)(=O)Nc2cc(Cl)cc3cnccc23)cc1 [Compound 58]
